{
  "source": "patent US10471057B2",
  "about": "“Toxic RNA inhibitors self-assembled in situ” (THE SCRIPPS RESEARCH INSTITUTE, priority 2014, dated 2019)",
  "key": {"[1]": {"tested_on": "r(CUG)109", "test": "In vitro reaction and pull down of small molecule dimers with RNA", "type": "biochemical", "conditions": "rCUG109, GC-based paired RNA and tRNA", "procedure": "Then 30 μL of this slurry were added to each sample and incubated at room temperature for 1 h. Then the samples were centrifuged and the supernatant was transferred to a separate tube. The beads were then washed with 1×PBST and centrifuged. The supernatant was transferred to the tube containing the unbound RNA. The total radioactive counts of bound and unbound RNA were measured by scintillation counting."}, "[2]": {"tested_on": "DMPK mRNA", "conditions": "100 nM, 48 h, qRT-PCR of r(CUG)-containing mRNAs", "description": "Target identification of small molecule dimers was assessed using DM1 patient derived fibroblasts containing 500 CTG repeats (GM03987) and healthy fibroblasts (GM07492). Cells were grown as monolayers in 100 mm^2 in growth medium (1×EMEM (Lonza), 10% FBS, 1× glutagro (Corning), 1×MEM non-essential amino acids (Corning) and 1× antibiotic/antimycotic (Corning)). Once cells were 80% confluent, they were treated with growth medium containing the compound of interest (100 nM 2H-K4NMeS-CA-Biotin). After 48 h the cells were lysed and the total RNA was harvested using Trizol reagent (Life Technologies). Approximately 10 of total RNA was incubated with streptavidin-agarose beads (100 Sigma) for 1 h at room temperature. Then the beads were washed with 1×PBS and the bound RNA was eluted by adding 100 μL of 95% formamide, 10 mM EDTA pH 8.2 for 10 min at 60° C. The bound RNA was cleaned up using a Zymo Quick RNA miniprep kit. Approximately 100 ng of RNA was used for RT qScript cDNA synthesis kit (Quanta BioSciences). 10% of the RT reaction was used for real time PCR (qPCR) with SYBR green master mix (Life Technologies) performed on a 7900HT Fast Real-Time PCR System (Applied Biosystems). Monitored rCUG-containing mRNAs DMPK (500 repeats), SUPT20HL1 (17 repeats), CASK (16 repeats), LRP8 (11 repeats), MAP3K4 (11 repeats), SCUBE (7 repeats) and SORCS2 (7 repeats). Quantified by ΔΔCt relative to GAPDH"}, "[3]": {"tested_on": "r(CUG)exp", "test": "DM1 pre-mRNA splicing defects in patient derived fibroblasts", "type": "cell-based, human", "procedure": "Bioactivity of small molecule dimers was assessed by using DM1 patient derived fibroblasts containing 500 CTG repeats (GM03987) and healthy fibroblasts (GM07492). Cells were grown as monolayers in 12 well plates in growth medium (1×EMEM (Lonza), 10% FBS, 1× glutagro (Corning), 1×MEM non-essential amino acids (Corning) and 1× antibiotic/antimycotic (Corning)). Once cells were ˜80% confluent, they were treated with growth medium containing the compound of interest (10, 1, 0.1 and 0.01 μM 2H-K4NMeS; 100, 10 and 1 nM 2H-K4NMeS-CA-Biotin; 1 μM N3-2H-K4NMeS; 500 nM N3-2H-K4NMeS+500 nM 2H-K4NMeS-Aminohexanoate; 1000, 10 and 0.1 nM N3-2H-K4NMeS-Aak; 250, 100, and 50 nM 2H-K4NMeS-Bleomycin A5). After 48 h the cells were lysed and the total RNA was harvested using a Zymo Quick RNA miniprep kit. An on-column DNA digestion was completed per the manufacturer's recommended protocol. Approximately 150 ng of total RNA was reverse transcribed at 50° C. using 100 units of SuperScript III reverse transcriptase (Life Technologies). Then 20% of the RT reaction was subjected to PCR using GoTaq DNA polymerase (Promega). RT-PCR products were observed after 25 cycles of 95° C. for 30 s, 58° C. for 30 s, 72° C. for 1 min and a final extension at 72° C. for 1 min. The products were separated on an 2% agarose gel ran at 100 V for 1 h in 1×TAE buffer. The products were visualized by staining with ethidium bromide and scanned using a Bio-Rad Gel Doc XR+ imaging system. The RT-PCR primers for the MBNL1 were […]"}, "[4]": {"tested_on": "r(CUG)exp", "test": "Splicing defects in HSA LR DM1 mouse model", "type": "in vivo", "conditions": "intraperitoneal once per day for 7 days, vastus muscle", "procedure": "All experimental procedures, mouse handling, and husbandry were completed in accordance with the Association for Assessment and Accreditation of Laboratory Animal Care. A mouse model for DM1^[8], HSA^LR in line 20b, was used. HSA^LR mice express human skeletal actin RNA with 250 CUG repeats in the 3′ UTR. Age- and gender-matched HSA^LR mice were injected intraperitoneally with either 100 mg/kg 2H-K4NMe in water or 13.3 mg/kg 2H-K4NMeS for treatment and 0.9% NaCl for control once per day for 7 days. Mice were sacrificed one day after the last injection, and the vastus muscle was obtained. RNA was extracted from the vastus tissue, and cDNA was synthesized as previously described."}, "[5]": {"test": "Metabolic stability in rat microsomes", "type": "in vitro ADME"}, "[6]": {"tested_on": "r(CUG)exp", "test": "Nuclear foci by FISH in DM1 patient derived fibroblasts", "type": "cell-based, human", "conditions": "48 h", "procedure": "FISH was utilized to determine the effects of small molecule dimers on the formation and disruption of nuclear foci. DM1 patient derived fibroblasts containing 500 CTG repeats (GM03987) were grown to ˜80% confluence in a Mat-Tek 96-well glass bottom plate in growth medium. Cells were treated with the compound of interest for 48 h in growth medium followed by FISH as previously described^6 using 1 ng/μL DY547-2′OMe-(CAG)6. Immunostaining of MBNL1 was completed as previously described^7 using the MB1a antibody (diluted 1:4), which was generously supplied by Prof. Glenn E. Morris (Wolfson Centre for Inherited Neuromuscular Disease^[9]. This was fluorescently labeled using a 1:200 dilution of goat anti-mouse IgG DyLight 488 conjugate. Untreated controls were stained using a 1 μg/μL solution of DAPI in 1×DPBS. Cells were imaged in 1×DPBS using an Olympus FluoView 1000 confocal microscope at 100× magnification."}, "[7]": {"tested_on": "luciferase reporter without CTG repeats", "test": "Translational defect luciferase reporter assay, 0 CTG repeats", "type": "cell-based", "procedure": "(§1) C2C12 cell lines expressing 800 or 0 CTG repeats in the 3′ UTR of luciferase were grown as monolayers in 96-well plates in growth medium (1×DMEM, 10% FBS, 1× glutagro, (Corning) andlX antibiotic/antimycotic (Corning))^[10]. Once the cells were 70% confluent, the click functionalized dimers were added in 100 μL of growth medium (1000 nM N3-2H-K4NMeS and 1000, 10 and 0.1 nM N3-2H-K4NMeS-Aak). Cells were treated with compound for 48 h and then the cell count was normalized using WST-1 reagent (Roche). Then cells were washed with 1×DPBS and lysed by treating with 50 μL of PPBT lysis buffer at room temperature for 10 minutes. Then 50 μL of luciferase substrate was added and luminescence was measured."}, "[8]": {"tested_on": "r(CUG) repeats in 3' UTR of luciferase", "test": "Translational defect luciferase reporter assay, 800 CTG repeats", "type": "cell-based", "conditions": "cells with long, toxic r(CUG) repeats", "procedure": "as §1"}, "[9]": {"tested_on": "r(CCUG)300", "test": "Disruption of nuclear foci by FISH in DM2 cell culture model", "type": "cell-based", "conditions": "C2C12 cells expressing r(CCUG)300, 72 h treatment; untreated 9±2", "procedure": "FISH was utilized to determine the effects of clickable compounds on the formation of nuclear foci. C2C12 were sub-cultured into Mat-Tek 96-well glass bottom plates in growth medium. After the cells reached 60-70% confluency, each well was transfected with 200 ng of total plasmid using 1 μL of Lipofectamine 2000 according to the manufacturer's standard protocol. Equal amounts of plasmids expressing the DM2 mini-gene^[1] and EGFP, used as a positive marker of transfection, were used. After 5 h, the transfection cocktail was removed and replaced with differentiation medium containing the compound of interest. The cells were treated with compound for 72 h followed by FISH as previously described using 1 ng/μL DY547-2′OMe-(CAGG)5^[6]. Cells were imaged in 1×DPBS using an Olympus FluoView 1000 confocal microscope at 100× magnification."}},
  "note": "“Also recorded” adds a separate entry of the source.",
  "data": [
    {"smiles": "C[C@H](NC(=O)[C@H](C)N(C)C(=O)CN(CCN(C)C(=O)CCCOc1cccc(-c2nc3ccc(-c4nc5cc(N6CCN(C)CC6)ccc5[nH]4)cc3[nH]2)c1)C(=O)CN(CCNC(=O)CCCC[C@@H]1SC[C@@H]2NC(=O)N[C@@H]21)C(=O)CCNC(=O)CCCc1ccc(N(CCCl)CCCl)cc1)C(=O)N(C)[C@@H](C)C(=O)N(CCCCN(C)C(=O)CCCOc1cccc(-c2nc3ccc(-c4nc5cc(N6CCN(C)CC6)ccc5[nH]4)cc3[nH]2)c1)CC(N)=O", "note": "[2H-K4NMeS-CA-Biotin]", "values": [
      {"measurement": "in vitro reaction with RNA targets", "setting": "[1]", "result": "most effectively reacted with r(CUG)109"},
      {"measurement": "RNA targets pulled down (Chem-CLIP)", "setting": "[2]", "result": "binds to disease-causing expanded transcripts and not other RNAs with shorter (non-pathogenic length) r(CUG) repeats"},
      {"measurement": "improvement of DM1-associated pre-mRNA splicing defects (in words)", "setting": "[3]; cells", "result": "improves DM1-associated pre-mRNA splicing defects in cells"}
    ]},
    {"smiles": "C[C@@H](C(=O)N(C)[C@@H](C)C(=O)N(C)[C@@H](C)C(=O)N(C)[C@@H](C)C(=O)N(CCCCN(C)C(=O)CCCOc1cccc(-c2nc3ccc(-c4nc5cc(N6CCN(C)CC6)ccc5[nH]4)cc3[nH]2)c1)CC(N)=O)N(C)C(=O)CCCOc1cccc(-c2nc3ccc(-c4nc5cc(N6CCN(C)CC6)ccc5[nH]4)cc3[nH]2)c1", "note": "[2H-K4NMeS]", "values": [
      {"measurement": "potency at improving Clen1 pre-mRNA splicing defect compared to 2H-K4NMe", "setting": "[4]", "result": "> 7", "unit": "fold"},
      {"measurement": "stability in microsomes (in words)", "setting": "[5]", "result": "stable in microsomes; also recorded: stable to rat microsomes"},
      {"measurement": "rescue of pre-mRNA splicing defect", "setting": "[3]; DM1 patient-derived fibroblasts, concentrations greater than 100 nM", "result": "> 50", "unit": "%"}
    ]},
    {"smiles": "C#CC(=O)NCCCCCC(=O)N(CCN(C)C(=O)CCCOc1cccc(-c2nc3ccc(-c4nc5cc(N6CCN(C)CC6)ccc5[nH]4)cc3[nH]2)c1)CC(=O)N(C)[C@@H](C)C(=O)N(C)[C@@H](C)C(=O)N(C)[C@@H](C)C(=O)N(CCCCN(C)C(=O)CCCOc1cccc(-c2nc3ccc(-c4nc5cc(N6CCN(C)CC6)ccc5[nH]4)cc3[nH]2)c1)CC(=O)N(CCCN=[N+]=[N-])CC(N)=O", "note": "[N3-2H-K4NMeS-Aak]", "values": [
      {"measurement": "RNA nuclear foci", "setting": "[6]", "result": "far fewer foci are observed"},
      {"measurement": "effect on translation in cells without pathogenic repeats", "setting": "[7]", "result": "has no effect on cells that did not have pathogenic repeats"},
      {"measurement": "improvement of DM1-associated pre-mRNA splicing defects", "setting": "[3]; DM1 patient-derived fibroblasts, 10 nM dosage", "result": "> 50", "unit": "%"},
      {"measurement": "DMPK translational defect", "setting": "[8]", "result": "improved the DMPK translational defect at nanomolar concentrations"}
    ]},
    {"smiles": "[N-]=[N+]=NCC1OC(OC2C(N)CC(N)C(OC3OC(CN)C(O)C(O)C3O)C2O)C(O)C(N)C1O", "note": "(centres unmarked) [N3-K]", "values": [
      {"measurement": "average number of foci per cell", "setting": "[9]", "result": "6±2", "unit": "foci per cell"}
    ]}
  ]
}
